In US11149028B2, “Methods for treating melanoma using small molecules” (NOVA SOUTHEASTERN UNIVERSITY, priority 2016, dated 2021):
“Also recorded” adds a separate entry of the source. Peptide text beside a SMILES is read from it. * marks the point of attachment. Cbz = O=C(OCc1ccccc1)*; CH2F = FC*

What was measured:
calpain in WM266-4 cells = assay: Calpain activity assay (Calpain-Glo); assay type: cell-based, human
Description: The Calpain-Glo Protease Assay (Promega cat #) was used to measure the calpain enzyme activity in live cells, according to the manufacturer's instructions. 1,250 of WM-266-4 cells were plated in 384-well white TC-treated plates in 5 μL of serum-free EMEM media. The cells were incubated overnight at 37° C., 5% CO2 and 95% relative humidity and 5 μL of test compounds 2155-14, (100 μM), calpain inhibitor III and PD151746 (25 μM) were added alone or in combination and incubated at 37° C., 5% CO2, and 95% relative humidity for 0.5, 4, and 24 h. After incubation, 10 μL, of a freshly prepared dilution of the Calpain-Glo Reagent stock solution (consisting of Suc-LLVY-Glo™ substrate, Calpain-Glo™ buffer, Luciferin Detection Reagent, and CaCl2) was added to cells at above mentioned times and luminescence was recorded with a Neo 2 microplate reader (Biotek Inc). All experiments were performed in triplicate and the values provided are the calculated average of at least three independent experiments.

WM266-4 cells [1] = assay: CellTiter-Glo cell viability assay, WM266-4 (including rescue assays); assay type: cell-based, human
Description: Cells were plated in 384-well plates in 8 μL of media. Test compounds and dabrafenib (pharmacological assay control) were prepared as 10-point, 1:3 serial dilutions starting at 300 μM, then added to the cells (4 μL per well) using the Biomek Plates were incubated for 72 h at 37° C., 5% CO2 and 95% relative humidity. After incubation, 4 μL of CellTiter-Glo® (Promega cat #: G7570) were added to each well, and incubated for 15 min at room temperature. Luminescence was recorded using a Biotek Synergy H4 multimode microplate reader. Viability was expressed as a percentage relative to wells containing media only (0%) and wells containing cells treated with DMSO only (100%). Three parameters were calculated on a per-plate basis: (a) the signal-to-background ratio (SB); (b) the coefficient for variation [CV; CV=(standard deviation/mean)×100)] for all compound test wells; and (c) the Z′-factor (18). The IC50 value of the pharmacological control (dabrafenib, LC Laboratories #G-4408) was also calculated to ascertain the assay robustness. In case of viability rescue assays, cells were pre-treated with caspase, calpain, and autophagy inhibitors for 1-3 h before addition of test compounds. Time course viability assay was done with luminescence measurements performed at 4, 24, 48, and 72 h.

[2] = system: cleaved lamin A/C in WM266-4 cells; assay: Western blotting for lamin A/C cleavage; assay type: cell-based, human
Description: (§1) 1×10^6 of WM266-4 or M14 cells were seeded in 3 mL of E-MEM or RPMI-1640 medium supplemented with 10% FBS and 1% penicillin/streptomycin in 6 cm plates. […] After washing with TBST, the membranes were treated with chemilumiscent horseradish peroxidase detection reagent (Thermo Scientific, Cat #32209) and exposed to autoradiography film (Denville Scientific, Inc., Metuchen, N.J., USA, cat #E3018). ImageJ software (NIH, Bethesda, Md.) was used to quantify the intensity of proteins bands. The protein bands were normalized against loading controls.

[3] = system: LC3-II and beclin-1 in WM266-4 cells; assay: Western blotting for LC3 and beclin-1, WM266-4; assay type: cell-based, human
Description: as §1, with “controls (β-actin) and expressed as a fold of an untreated control.” for “controls.”

M14 cells = details: time course 4-72 h; time stated at the place
Description: ApoTox-Glo™ Triplex Assay which allows one to simultaneously assess the effect of small molecules on cell viability, toxicity, caspase activity, and cell cycle all in the same well (Niles, A. L.; Moravec, R. A.; Riss, T. L. In vitro viability and cytotoxicity testing and same-well multi-parametric combinations for high throughput screening. Curr Chem Genomics 2009, 3, 33-41) was utilized. First, a mixture of 2 fluorogenic substrates was added to cells. GF-AFC substrate is cell-permeant and non-lytic to cells, allowing the measurement of active protease inside live cells. The second substrate (bis-AAF-R110 Substrate) is not cell-permeable and is only cleaved when proteases are released from cells due to the loss of membrane integrity typical of cell death. This step generates an inversely correlated measurement of cell viability and toxicity.
The second addition is luminogenic DEVD-peptide substrate for caspase-3/7 and Ultra-Glo™ Recombinant Thermostable Luciferase. Caspase-3/7 cleavage of the substrate generates a luminescent signal which correlates with caspase-3/7 activation as a key indicator of apoptosis. As markers for cytotoxicity and apoptosis are transient, the assay was conducted in time course format with time points at 4, 24, 48, and 72 h.
M14 #5 cells were plated in 384-well format at a density of 1,250 cells in 5 μL of serum-free DMEM media and incubated at 37° C. in 5% CO2 for 4 h. Control and test compounds were serially diluted in a ratio of 1:3 and added to wells in 4 μL. […] Plates were incubated at 37° C. in 5% CO2 for 4, 24, 48, and 72 h. At the end of each time point Viability/Cytotoxicity™ Reagent was prepared containing 400 μM glycylphenylalanyl-aminofluorocoumarin (GF-AFC) substrate (cleavable by live cell proteases) and 400 μM bis-alanylalanyl-phenylalanyl-rhodamine 110 (bis-AAF-R110) substrate (cleavable by dead cell proteases). 4 μL of the Viability/Cytotoxicity™ Reagent was used per well. The plate was incubated for 30 min at 37° C. Fluorescence was read at λEx=400 nm and λEm=505 nm for GF-AFC and λEx=485 nm and λEm=520 nm for bis-AAF-R110 on the BioTek Synergy™ 4 Multi-Mode Microplate Reader. Caspase-Glo® 3/7 Reagent was then added in 12 μL volume. The plate was incubated for 30 min at room temperature and luminescence was measured on the BioTek Synergy™ 4 Multi-Mode Microplate Reader.

WM266-4 cells [4] = assay: Annexin V flow cytometry assay; assay type: cell-based, human; details: 4 h
Source text: After 4, 24 and 48 hrs of compound exposure the adherent and floating cells were combined and stained using the TACS Annexin V-FITC Apoptosis detection kit (Trevigen Inc, Gaithersburg, Md., USA) using manufacturer's protocol. Viable, necrotic, early and late apoptotic cells were counted using Accuri flow cytometer as per the manufacturer instructions.

[5] = 50 μM inhibitor, then 100 μM 2155-14
[6] = 10 μM inhibitor 3 h, then 100 μM 2155-14, 24 h
[7] = cells treated with 100 μM 2155-14, inhibitor 10 μM

CCCNC(=O)[C@H]1O[C@@H]1C(=O)N[C@H](C(=O)N1CCC[C@H]1C(=O)O)[C@@H](C)CC [CA074, reference compound]
increase of calpain activity (calpain in WM266-4 cells; 20 μM, from 30 min, persisted at 4 and 24 h): ~5 fold
viability of WM266-4 cells (WM266-4 cells [1]; 24 h, 20 μM cathepsin B inhibitor): 25%

CN(C)c1cccc2c(S(=O)(=O)NCCCC[C@@H](CN3CCC[C@H]3CN3C(=O)C(=O)NC[C@@H]3Cc3ccccc3)N3C[C@H](Cc4ccc(O)cc4)N(CCc4ccccc4)C(=O)C3=O)cccc12 [Compound 2476-66.2, N—((S)-6-((S)-2-(((S)-6-benzyl-2,3-dioxopiperazin-1-yl)methyl)pyrrolidin-1-yl)-5-((S)-5-(4-hydroxybenzyl)-2,3-dioxo-4-phenethylpiperazin-1-yl)hexyl)-5-(dimethylamino)naphthalene-1-sulfonamide]
lamin A/C cleavage ([2]; 2.5 μM, 24 hr): no cleavage of lamin A/C
lamin A/C western blot ([2]; 5 μM, 24 hr): striking increase of cleaved lamin A/C
LC3-II level ([3]; 2.5 μM, 24 hr): no cleavage of lamin A/C or increase of levels of LC3-II was detected
LC3 western blot ([3]; 5 μM, 24 hr): neither of LC3 isoforms nor actin were detected

O=C(CCCC[C@@H]1SC[C@@H]2NC(=O)N[C@@H]21)NCCCC[C@@H](CN1CCC[C@H]1CN1C(=O)C(=O)NC[C@@H]1Cc1ccccc1)N1C[C@H](Cc2ccc(O)cc2)N(CCc2ccccc2)C(=O)C1=O [Compound 2529-5, N—((S)-6-((S)-2-(((S)-6-benzyl-2,3-dioxopiperazin-1-yl)methyl)pyrrolidin-1-yl)-5-((S)-5-(4-hydroxybenzyl)-2,3-dioxo-4-phenethylpiperazin-1-yl)hexyl)-5-((3aS,4S,6aR)-2-oxohexahydro-1H-thieno[3,4-d]imidazol-4-yl)pentanamide]
cleaved lamin A/C level ([2]; 100 μM, 24 h): did not significantly increase; also recorded: had no effect on cleavage of lamin A/C
IC50 (WM266-4 cells [1]; Homo sapiens, WM 266-4, 72 h, 72 h): > 100 µM
cytotoxicity at 100 µM (WM266-4 cells [1]; Homo sapiens, WM 266-4, 100 μM, 72 h, read-out: maximal inhibition of cell viability): 37%
LC3-II level ([3]; 100 μM, 24 h): did not significantly increase

O=C(O)/C(S)=C/c1c[nH]c2ccc(F)cc12 [PD151746, reference compound]
calpain activity induced by 2155-14 after calpain inhibitor pre-treatment (calpain in WM266-4 cells; 25 μM inhibitor, 100 μM 2155-14): shut down calpain activity induced by 2155-14 at 30 min and 4 h but not at 24 h
cell viability restored in presence of 2155-14 (WM266-4 cells [1]; 24 h, 25 μM inhibitor, 100 μM 2155-14): ~75%
cell viability restored in presence of 2155-14 (WM266-4 cells [1]; 48 h, 25 μM inhibitor, 100 μM 2155-14): ~50%
cell viability in presence of 2155-14 (WM266-4 cells [1]; 72 h, 25 μM inhibitor, 100 μM 2155-14): all cells were dead

COC(=O)C[C@H](NC(=O)[C@H](C)NC(=O)[C@@H](NC(=O)[C@H](CC(=O)OC)NC(=O)[C@@H](NC(=O)OCc1ccccc1)C(C)C)C(C)C)C(=O)CF [caspase 2 inhibitor, Z-VDVAD-FMK, reference compound] (Cbz-VD(OMe)VAD(OMe)-CH2F)
lamin A/C cleavage after caspase inhibitor pre-treatment [2, 5]: to the lesser extent

CC[C@H](C)[C@H](NC(=O)[C@H](CCC(=O)OC)NC(=O)[C@@H](NC(=O)OCc1ccccc1)C(C)C)C(=O)N[C@@H](CC(=O)OC)C(=O)CF [caspase 6 inhibitor, Z-VEID-FMK, reference compound] (Cbz-VE(OMe)ID(OMe)-CH2F)
lamin A/C cleavage after caspase inhibitor pre-treatment [2, 6]: Only partial inhibition of lamin A/C cleavage
lamin A/C cleavage after caspase inhibitor pre-treatment [2, 5]: almost completely abrogated

CC[C@H](C)[C@H](NC(=O)OCc1ccccc1)C(=O)N[C@@H](CCC(=O)OC)C(=O)N[C@H](C(=O)N[C@@H](CC(=O)OC)C(=O)CF)[C@@H](C)O [caspase 8 inhibitor, Z-IETD-FMK, reference compound] (Cbz-IE(OMe)TD(OMe)-CH2F)
lamin A/C cleavage after caspase inhibitor pre-treatment [2, 6]: Only partial inhibition of lamin A/C cleavage
lamin A/C cleavage after caspase inhibitor pre-treatment [2, 5]: almost completely abrogated

CCN(CCO)CCCC(C)Nc1ccnc2cc(Cl)ccc12 (centres unmarked) [hydroxychloroquine, reference compound]
cleaved lamin A/C level after autophagy inhibitor pretreatment [2, 7]: increased levels
LC3-II level after autophagy inhibitor pretreatment [3, 7]: increased levels

C[C@H](CCC(=O)O)C[C@H](C)C[C@H](C)C(=O)/C=C(\O)[C@H](C)C[C@H](C)C/C=C/[C@@H](C)[C@@H](O)[C@@H](C)[C@@H](O)C[C@@H]1CC[C@@](C)([C@H]2CC[C@@](C)([C@@H](C)O)O2)O1 [ionomycin, reference compound]
ApoTox caspase-3/7 activity (M14 cells): did not induce a spike in caspase activity at any of the time points
ApoTox cytotoxicity (M14 cells): strong cytotoxicity response
ApoTox viability (live cell protease) (M14 cells): dose dependent loss of viability as early as 4 h

COC(=O)C[C@H](NC(=O)[C@H](C)NC(=O)[C@@H](NC(=O)OCc1ccccc1)C(C)C)C(=O)CF [pan-caspase inhibitor, Z-VAD-FMK, reference compound] (Cbz-Val-Ala-Asp(OMe)-CH2F)
lamin A/C cleavage after caspase inhibitor pre-treatment [2, 6]: Only partial inhibition of lamin A/C cleavage
lamin A/C cleavage after caspase inhibitor pre-treatment [2, 5]: almost completely abrogated

CN[C@@H]1C[C@H]2O[C@@](C)([C@@H]1OC)n1c3ccccc3c3c4c(c5c6ccccc6n2c5c31)C(=O)NC4 [staurosporine, reference compound]
apoptosis detected (WM266-4 cells [4]): apoptosis was detected only in staurosporine-treated cells

CC(C)(C)c1ccc(C(O)CCCN2CCC(C(O)(c3ccccc3)c3ccccc3)CC2)cc1 (centres unmarked) [terfenadine, reference compound]
ApoTox caspase-3/7 activity (M14 cells): early caspase activity spike (4-24 h)
ApoTox viability (live cell protease) (M14 cells): early loss of cell viability
